Data from patent publication US20230372333A1, “COMBINATION THERAPY FOR TREATING CANCER” (ASTRAZENECA AB, priority 2020, published 2023).
“Also recorded” adds a separate entry of the source.

Assays:
SUM149PT xenograft model = test: Anti-tumour efficacy of AZD5305, carboplatin and combination in SUM149PT xenograft model (Example 3); type: in vivo, mice; settings: AZD5305 0.01 mg/kg PO QD, 28 days
Procedure: SUM149PT cells (2×10^6) were implanted with 50% Matrigel into mammary fat pad (MFP) of female SCID mice (weight greater than 18 g). Tumours were measured (length×width) two times weekly by bilateral Vernier calliper measurements and tumour volume was calculated using elliptical formula (π/6×width×width×length). Animal bodyweight and tumour condition were monitored throughout the studies. Mice were randomised into treatment groups when mean tumour volume reached approximately 0.3 cm^3. Animals were treated from the day after the randomisation. Control animals were treated orally (PO) once daily (QD) with vehicle (deionised water acidified with HCl to pH 3.5-4) and intraperitoneally (IP) once weekly (QW) with PBS. AZD5305 was dosed PO QD at 0.1, 0.03 or 0.01 mg/kg. Carboplatin was dosed IP once weekly (QW) at 37.5 mg/kg. In the combination group, mice were dosed with carboplatin first, followed by AZD5305 administration within 10 minutes.
(§1) Tumour growth inhibition from start of treatment was assessed by comparison of the mean change in tumour volume of the control and treated groups and represented as percent tumour growth inhibition (TGI, when TV≥starting TV) or regression (reg, when TV<starting TV). Mean percent body weight change from start of treatment was also calculated for all the groups. Statistical significance was evaluated using a one-tailed t test. […]

[1] = test system: HBCx-9 patient-derived explant model; test: Anti-tumour efficacy of AZD5305, carboplatin and combination in HBCx-9 PDX model (Example 2); type: in vivo; settings: carboplatin 50 mg/kg IP QW, 28 days, Nude female mice
Text: HBCx-9 is a patient-derived tumour explant (PDX) model established in XenTech without prior in vitro culture. Tumour fragments were transplanted subcutaneously (SC) onto donor mice. When tumour volume reached 700 to 1764 mm^3, donor mice were sacrificed, and tumours were aseptically excised and dissected. After removing necrotic areas, tumours were cut into fragments measuring approximately 20 mm^3 and transferred in culture medium before grafting SC into the recipient (experimental) Nude female mice. Tumours were measured (length×width) two times weekly by bilateral Vernier calliper measurements and tumour volume was calculated using elliptical formula (π/6×width×width×length). Animal bodyweight and tumour condition were monitored throughout the study. Mice were randomised into treatment groups when mean tumour volume reached approximately 100 mm^3. Animals were treated from the day after the randomisation. […]
as §1, with “TV≤starting” for “TV≥starting”

HBCx-9 = HBCx-9 TNBC PDX model, reference [2]; cited from earlier work

CCc1cc2ncc(CN3CCN(c4ccc(C(=O)NC)nc4)CC3)cc2[nH]c1=O [AZD5305, 5-[4-[(7-ethyl-6-oxo-5H-1,5-naphthyridin-3-yl)methyl]piperazin-1-yl]-N-methyl-pyridine-2-carboxamide]
Tumour Growth Inhibition/Regression (end of treatment) (SUM149PT xenograft model): did not inhibit tumour growth; also recorded: No TGI or regression

N.N.O=C([O-])C1(C(=O)[O-])CCC1.[Pt+2] [Carboplatin, carboplatin]
Tumour Growth Inhibition/Regression (end of treatment): TGI [1]: 88% TGI *** (p ≤ 0.001)
Tumour Growth Inhibition/Regression (end of treatment): TGI ([1]; listed as carboplatin): 88%

O=C(c1cc(Cc2n[nH]c(=O)c3ccccc23)ccc1F)N1CCN(C(=O)C2CC2)CC1 [olaparib]
sensitivity of HBCx-9 to monotherapy (HBCx-9): moderate sensitivity
